Measured values as given in US20140093499A1, “PHARMACEUTICAL COMBINATIONS COMPRISING DUAL ANGIOPOIETIN-2 / DLL4 BINDERS AND ANTI-VEGF AGENTS” (BOEHRINGER INGELHEIM INTERNATIONAL GMBH, priority 2012, published 2014).

Assays:
[1] = tested on: MAXF 401 mammary cancer xenograft; test: MAXF 401 patient-derived tumor xenograft efficacy in nude mice; assay type: in vivo, human; settings: BI-1 13.6 mg/kg twice weekly i.p., BIBF1120 50 mg/kg once daily p.o., Bevacizumab 15 mg/kg twice weekly i.p.
Excerpt: (§1) The goal of the present study was to assess the efficacy of BI-1 in combination with Bevacizumab, BIBF1120 or Sunitinib in models of human non small cell lung cancer (LXFE 211, LXFE 1422), colon cancer (CXF 243), mammary cancer (MAXF 401), ovarian cancer (OVXF 1353), pancreatic cancer (PAXF 546) and renal cancer (RXF 1220) in nude mice. All models were patient-derived tumor xenografts (PDX), which were transplanted from patients to nude mice and passaged subcutaneously. These models retain most of the characteristics of the parental patient tumors including histology.
(§2) Tumor fragments were obtained from tumor xenografts in serial passage in nude mice. After removal from donor mice, tumors were cut into fragments (4-5 mm diameter) and placed in PBS until subcutaneous implantation. Recipient mice were anesthetized by inhalation of isoflurane. […] Mice were monitored daily. […]
(§3) The doses of BI-1 and Bevacizumab were calculated to the average body weight of all mice on day 1 (28 g) and administered intraperitoneally twice weekly in a volume of 100 μl per mouse. […]
(§4) Tumor diameters were measured twice weekly with a caliper. The volume of each tumor [in mm^3] was calculated according to the formula “tumor volume=length*diameter^2*0.5.” To monitor side effects of treatment, mice were inspected daily for abnormalities and body weight was determined twice weekly. […]

[2] = tested on: PAXF 546 pancreatic cancer xenograft; test: PAXF 546 patient-derived tumor xenograft efficacy in nude mice; assay type: in vivo, human; settings: BI-1 13.6 mg/kg twice weekly i.p., BIBF1120 50 mg/kg once daily p.o., Bevacizumab 15 mg/kg twice weekly i.p.
Excerpt: as §1, §2, §3, §4

[3] = tested on: LXFE 211 non small cell lung cancer xenograft; test: LXFE 211 patient-derived tumor xenograft efficacy in nude mice; assay type: in vivo, human; settings: BI-1 13.6 mg/kg twice weekly i.p., BIBF1120 50 mg/kg once daily p.o., Bevacizumab 15 mg/kg twice weekly i.p.
Excerpt: as §1, §2, §3, §4

[4] = tested on: OVXF 1353 ovarian cancer xenograft; test: OVXF 1353 patient-derived tumor xenograft efficacy in nude mice; assay type: in vivo, human; settings: BI-1 13.6 mg/kg twice weekly i.p., BIBF1120 50 mg/kg once daily p.o., Bevacizumab 15 mg/kg twice weekly i.p.
Excerpt: as §1, §2, §3, §4

[5] = tested on: LXFE 1422 non small cell lung cancer xenograft; test: LXFE 1422 patient-derived tumor xenograft efficacy in nude mice; assay type: in vivo, human; settings: BI-1 13.6 mg/kg twice weekly i.p., BIBF1120 50 mg/kg once daily p.o., Bevacizumab 15 mg/kg twice weekly i.p.
Excerpt: as §1, §2, §3, §4

[6] = tested on: CXF 243 colon cancer xenograft; test: CXF 243 patient-derived tumor xenograft efficacy in nude mice; assay type: in vivo, human; settings: BI-1 13.6 mg/kg twice weekly i.p., BIBF1120 50 mg/kg once daily p.o., Bevacizumab 15 mg/kg twice weekly i.p.
Excerpt: as §1, §2, §3, §4

[7] = tested on: human non-small cell lung cancer (NCl-H1975) xenografts; test: NCl-H1975 subcutaneous xenograft efficacy in nude mice; assay type: in vivo; settings: NCl-H1975, day 1 to day 14; Bevacizumab 25 mg/kg twice weekly i.p., BIBF 1120 50 mg/kg daily p.o., BI-1 13.6 mg/kg twice weekly i.p.
Description: The goal of the present study was to assess the efficacy of BI-1 in combination with Bevacizumab and BIBF 1120 in a model of human non small cell lung cancer (NCl-H1975) in nude mice.
• Model: Subcutaneous xenografts of the human non-small cell lung cancer (NCl-H1975) growing in nude mice
To establish subcutaneous tumors, NCl-H1975 cells were harvested by centrifugation, washed and resuspended in PBS+5% FCS at 5×10^7 cells/ml. 100 μl cell suspension containing 5×10^6 cells was then injected subcutaneously into the right flank of the mice (1 site per mouse). Mice were randomly distributed between the treatment and the vehicle control group (7 days after cell injection) when tumors were well established and had reached volumes of 63 to 104 mm3.
The doses of BI-1 and Bevacizumab were calculated to the average body weight of all mice on day 1 (28 g) and administered intraperitoneally twice weekly in a volume of 100 μl per mouse. BIBF 1120 was dosed according to the body weight (mg/kg) and administered daily perorally.
Tumor diameters were measured three times a week (Monday, Wednesday and Friday) with a caliper. The volume of each tumor [in mm3] was calculated according to the formula “tumor volume=length*diameter2*π/6.” To monitor side effects of treatment, mice were inspected daily for abnormalities and body weight was determined three times a week (Monday, Wednesday and Friday). […]

[8] = Body weight and deaths in PDX tumor-bearing nude mice; settings: mouse, in vivo
Description: Mice were 5-7 week-old female Crl:NMRI-Foxn1^nu purchased from Charles River, Sulzfeld, Germany. After arrival, mice were allowed to adjust to ambient conditions for at least 5 days before they were used for the experiments. They were housed in individual ventilated Makrolon® type II long cages under standardized conditions at 25±1° C. temperatures and 55±10% humidity. Standardized diet (Teklad Global 19% Protein Extruded Diet (T.20195.12) from Harlan Laboratories) and sterile filtrated and acidified (pH 2.5) tap water were provided ad libitum. Ear clips were used to identify each mouse. Cage cards showing the study number, the animal identification number, the compound and dose level, the administration route as well as the schedule remained with the animals throughout the study.
Tumor diameters were measured twice weekly with a caliper. The volume of each tumor [in mm^3] was calculated according to the formula “tumor volume=length*diameter^2*0.5.” To monitor side effects of treatment, mice were inspected daily for abnormalities and body weight was determined twice weekly. Animals with tumor sizes exceeding 1.5 cm in diameter or 20% body weight loss were euthanized for ethical reasons.

[9] = tested on: RXF 1220 renal cancer xenograft; test: RXF 1220 patient-derived tumor xenograft efficacy in nude mice; assay type: in vivo, human; settings: BI-1 13.6 mg/kg twice weekly i.p., Sunitinib 40 mg/kg once daily, Bevacizumab 15 mg/kg twice weekly i.p.
Excerpt: as §1
Sunitinib (Sutent®, Pfizer) tablets were ground with mortar and pestle and 108.48 mg powder (corresponding to 32 mg API; correction factor: 3.39) were dissolved in PBS (pH 5).
Tumor fragments were obtained from tumor xenografts in serial passage in nude mice. […] Mice were monitored daily. […]
as §3, §4

Compound | TGI [1] | TGI [2] | TGI [3] | TGI [4] | TGI [5] | TGI [6] | median TGI (tumor growth inhibition) [7] | maximum median body weight loss [8] | TGI [9]
COC(=O)c1ccc2c(c1)NC(=O)/C2=C(\Nc1ccc(N(C)C(=O)CN2CCN(C)CC2)cc1)c1ccccc1 [BIBF 1120] | 63% | 69% | 40% | 78% | 57% | 65% | 75% | 5.9% | –
Bevacizumab | 68% | 59% | 37% | – | 63% | – | 82% | 9.1% | –
CCN(CC)CCNC(=O)c1c(C)[nH]c(/C=C2\C(=O)Nc3ccc(F)cc32)c1C [Sunitinib] | – | – | – | – | – | – | – | – | 62%
